The target of assay [1] is Acetylcholinesterase (AChE) (Electrophorus electricus, UniProt O42275). In words: Ellman's assay, purified enzyme from electric eel. The format is biochemical. A general note: In Ellman's method for cholinesterases, released thiocholine reacts with DTNB.
In assay [2] the target is Butyrylcholinesterase (BuChE) (Equus caballus, UniProt P81908). Put plainly: Ellman's assay, purified enzyme from equine serum. The format is biochemical.

Molecules are shown by their SMILES. pIC50: −log10 of the molar value.

Broadly, the pIC50 is the IC50 on a negative log10 scale, so that one unit is a factor of ten.

Chain of Butyrylcholinesterase (BuChE) (P81908 whole entry): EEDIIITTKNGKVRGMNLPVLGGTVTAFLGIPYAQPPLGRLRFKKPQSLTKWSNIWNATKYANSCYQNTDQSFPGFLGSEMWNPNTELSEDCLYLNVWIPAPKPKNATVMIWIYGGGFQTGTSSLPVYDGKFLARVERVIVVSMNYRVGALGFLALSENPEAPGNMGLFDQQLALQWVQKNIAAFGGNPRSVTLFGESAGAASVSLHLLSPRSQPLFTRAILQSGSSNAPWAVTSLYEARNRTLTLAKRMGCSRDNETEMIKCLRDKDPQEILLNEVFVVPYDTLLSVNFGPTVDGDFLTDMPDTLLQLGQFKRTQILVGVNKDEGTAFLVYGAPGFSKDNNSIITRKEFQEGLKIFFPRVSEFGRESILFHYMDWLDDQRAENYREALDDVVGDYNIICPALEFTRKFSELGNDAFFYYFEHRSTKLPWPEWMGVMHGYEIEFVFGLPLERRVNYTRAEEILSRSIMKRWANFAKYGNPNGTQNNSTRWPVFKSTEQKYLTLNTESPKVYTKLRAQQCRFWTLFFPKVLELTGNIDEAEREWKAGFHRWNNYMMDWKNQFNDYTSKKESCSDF
Chain of Acetylcholinesterase (AChE) (O42275 24-633): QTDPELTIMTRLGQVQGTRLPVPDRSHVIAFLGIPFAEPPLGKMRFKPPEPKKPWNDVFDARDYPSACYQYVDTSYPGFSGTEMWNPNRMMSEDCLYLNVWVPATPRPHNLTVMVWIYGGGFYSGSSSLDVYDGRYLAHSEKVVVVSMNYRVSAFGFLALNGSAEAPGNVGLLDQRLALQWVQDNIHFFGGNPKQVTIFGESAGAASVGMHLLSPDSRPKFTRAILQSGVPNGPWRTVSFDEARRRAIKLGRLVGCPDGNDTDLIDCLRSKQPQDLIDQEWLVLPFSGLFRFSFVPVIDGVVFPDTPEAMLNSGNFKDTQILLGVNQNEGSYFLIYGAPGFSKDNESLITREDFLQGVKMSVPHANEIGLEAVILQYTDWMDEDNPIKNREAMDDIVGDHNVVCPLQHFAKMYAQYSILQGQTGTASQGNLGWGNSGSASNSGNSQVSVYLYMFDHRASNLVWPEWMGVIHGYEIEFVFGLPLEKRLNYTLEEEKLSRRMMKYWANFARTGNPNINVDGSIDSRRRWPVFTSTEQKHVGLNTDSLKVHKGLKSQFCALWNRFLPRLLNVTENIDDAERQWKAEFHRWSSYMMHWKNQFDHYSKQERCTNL

In the case of `COc1cc2ccc(=O)oc2cc1O` [scopoletin, 6-methoxy-7-hydroxycoumarin], the pIC50 in assay [1] is 5.27; in assay [2], 5.04.

The values above are taken from publication PMC7338734 (Neuroscience Insights, 2020).
